# Data published in PubChem BioAssay (NCI).
#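 All cell lines were grown in 96-well plates and treated with compound for 48 hours. At the GI50, growth is halved. The concentration for full growth arrest is given as TGI.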
# Columns and labels:
# Assay in all cases: DTP human tumour cell line panel, 48 h
# NCI-H23 lung = test system: NCI-H23 lung
# NCI-H460 lung = test system: NCI-H460 lung
# NCI-H522 lung = test system: NCI-H522 lung
# NCI/ADR-RES ovarian = test system: NCI/ADR-RES ovarian
# OVCAR-3 ovarian = test system: OVCAR-3 ovarian
# OVCAR-4 ovarian = test system: OVCAR-4 ovarian
# OVCAR-5 ovarian = test system: OVCAR-5 ovarian
# OVCAR-8 ovarian = test system: OVCAR-8 ovarian
# PC-3 prostate = test system: PC-3 prostate
# RPMI-8226 leukemia = test system: RPMI-8226 leukemia
# RXF 393 renal = test system: RXF 393 renal
# SF-268 CNS = test system: SF-268 CNS
# SF-295 CNS = test system: SF-295 CNS
# SF-539 CNS = test system: SF-539 CNS
# SK-MEL-2 melanoma = test system: SK-MEL-2 melanoma
# SK-MEL-28 melanoma = test system: SK-MEL-28 melanoma
# SK-MEL-5 melanoma = test system: SK-MEL-5 melanoma
# SK-OV-3 ovarian = test system: SK-OV-3 ovarian
# SN12C renal = test system: SN12C renal
# SNB-19 CNS = test system: SNB-19 CNS
# SNB-75 CNS = test system: SNB-75 CNS
# SR leukemia = test system: SR leukemia
# SW-620 colon = test system: SW-620 colon
# T-47D breast = test system: T-47D breast
# TK-10 renal = test system: TK-10 renal
# U251 CNS = test system: U251 CNS
# UACC-257 melanoma = test system: UACC-257 melanoma
# UACC-62 melanoma = test system: UACC-62 melanoma
# UO-31 renal = test system: UO-31 renal
smiles,measurement,setting,value
O=C(N/N=C/c1ccc(Cl)o1)c1[nH]c2ccc(Br)cc2c1-c1ccccc1,GI50,NCI-H23 lung,417 nM
same,TGI,NCI-H23 lung,27300 nM
same,GI50,NCI-H460 lung,328 nM
same,TGI,NCI-H460 lung,10600 nM
same,GI50,NCI-H522 lung,137 nM
same,TGI,NCI-H522 lung,463 nM
same,GI50,NCI/ADR-RES ovarian,168 nM
same,TGI,NCI/ADR-RES ovarian,514 nM
same,GI50,OVCAR-3 ovarian,367 nM
same,TGI,OVCAR-3 ovarian,14700 nM
same,GI50,OVCAR-4 ovarian,3810 nM
same,TGI,OVCAR-4 ovarian,40200 nM
same,GI50,OVCAR-5 ovarian,388 nM
same,TGI,OVCAR-5 ovarian,22100 nM
same,GI50,OVCAR-8 ovarian,298 nM
same,TGI,OVCAR-8 ovarian,3180 nM
same,GI50,PC-3 prostate,402 nM
same,TGI,PC-3 prostate,> 100000 nM
same,GI50,RPMI-8226 leukemia,407 nM
same,TGI,RPMI-8226 leukemia,> 40500 nM
same,GI50,RXF 393 renal,397 nM
same,TGI,RXF 393 renal,26100 nM
same,GI50,SF-268 CNS,575 nM
same,TGI,SF-268 CNS,> 48100 nM
same,GI50,SF-295 CNS,331 nM
same,TGI,SF-295 CNS,> 49700 nM
same,GI50,SF-539 CNS,212 nM
same,TGI,SF-539 CNS,625 nM
same,GI50,SK-MEL-2 melanoma,423 nM
same,TGI,SK-MEL-2 melanoma,> 100000 nM
same,GI50,SK-MEL-28 melanoma,993 nM
same,TGI,SK-MEL-28 melanoma,> 61200 nM
same,GI50,SK-MEL-5 melanoma,247 nM
same,TGI,SK-MEL-5 melanoma,889 nM
same,GI50,SK-OV-3 ovarian,567 nM
same,TGI,SK-OV-3 ovarian,> 100000 nM
same,GI50,SN12C renal,377 nM
same,TGI,SN12C renal,14200 nM
same,GI50,SNB-19 CNS,442 nM
same,TGI,SNB-19 CNS,> 100000 nM
same,GI50,SNB-75 CNS,309 nM
same,TGI,SNB-75 CNS,18300 nM
same,GI50,SR leukemia,458 nM
same,TGI,SR leukemia,> 100000 nM
same,GI50,SW-620 colon,378 nM
same,TGI,SW-620 colon,27200 nM
same,GI50,T-47D breast,4530 nM
same,TGI,T-47D breast,> 100000 nM
same,GI50,TK-10 renal,8980 nM
same,TGI,TK-10 renal,37200 nM
same,GI50,U251 CNS,340 nM
same,TGI,U251 CNS,28100 nM
same,GI50,UACC-257 melanoma,3400 nM
same,TGI,UACC-257 melanoma,> 100000 nM
same,GI50,UACC-62 melanoma,346 nM
same,TGI,UACC-62 melanoma,> 85900 nM
same,GI50,UO-31 renal,627 nM
same,TGI,UO-31 renal,25900 nM
